The record followed here is ChEMBL document CHEMBL5385919, “A Survey of Recently Discovered Naturally Occurring Organohalogen Compounds” (J Nat Prod, 2024).

For experiment [1], the system named is Escherichia coli. In words: Antibacterial activity against Escherichia coli assessed as reduction in bacterial growth. The format is functional.
Experiment [2] deals with Staphylococcus aureus. The experiment can be described thus: Antibacterial activity against methicillin resistant Staphylococcus aureus assessed as reduction in bacterial growth. In kind it is functional, organism-based.
Experiment [3] has as its system Staphylococcus aureus. In words: Antibacterial activity against Staphylococcus aureus assessed as reduction in bacterial growth. The format is functional.
The test system of experiment [4] is Nannizzia gypsea. The experiment can be described thus: Antifungal activity against Microsporum gypseum assessed as reduction in fungal growth. In kind it is functional.
The test system of experiment [5] is HCT-8. The experiment can be described thus: Cytotoxicity against human HCT-8 cells assessed as inhibition of cell growth incubated for 48 hrs by MTT assay. To be noted: HCT-8, 48 h. In kind it is functional, cell-based. Background: Tetrazolium assays rely on reduction of a dye to a coloured formazan, in cell work by metabolically active cells.
Experiment [6] has as its system MDA-MB-231. The experiment can be described thus: Growth inhibition of human MDA-MB-231 cells assessed inhibition of cell growth. In kind it is functional.
The subject of experiment [7] is HepG2. In words: Cytotoxicity against human HepG2 cells assessed as inhibition of cell growth. In kind it is functional, cell-based.
The subject of experiment [8] is HL-60. The experiment can be described thus: Cytotoxicity against human HL-60 cells assessed as inhibition of cell growth. In kind it is functional, cell-based.
The test system of experiment [9] is Candida albicans. In words: Antifungal activity against Candida albicans assessed as reduction in […] growth. In kind it is functional.
For experiment [10], the system named is Bacillus subtilis. In words: Antibacterial activity against Bacillus subtilis assessed as reduction in bacterial growth. In kind it is functional.
Experiment [11] concerns Vibrio harveyi. The experiment can be described thus: Antimicrobial activity against Vibrio harveyi assessed as bacterial growth inhibition incubated for 12 hrs by serial dilution analysis. The format is functional.

What is called MIC is the smallest concentration in the dilution series that meets the test's criterion for growth inhibition. The term IC50 denotes the concentration needed to halve the response being measured. In general, GI50 refers to the concentration giving 50% growth inhibition. The low end stands for greater sensitivity of the cells, the high end for lower sensitivity of the cells.

Structures are written as SMILES. Converted amounts (≈) assume the structure as drawn.

Turning to `O=C1C=Cc2c3c4c(c(O)ccc4c4ccc(O)c1c24)[C@@H](O)[C@H](Cl)[C@@H]3O`, the MIC in [1] stood at 6.25 µM (≈ 2.3 µg/mL).

On to `Cc1cc(O)c2c3c(c(O)cc(OC[C@@H](O)C(C)(C)Cl)c13)C(=O)C2=O`, for which the minimal inhibitory concentration (MIC) in experiment [2] was found to be 12.5 µM. On to `O=C1NC[C@H](c2cc(Br)c(OC[C@H](O)CNC(=O)/C(Cc3cc(Br)c(O)c(Br)c3O)=N\O)c(Br)c2)O1`, for which the MIC in experiment [3] was 5.2 µM. Take `C=C(CCC=C(C)C)[C@]1(O)CC[C@@](C)(Cl)[C@H](Br)C1`: the MIC came out at 8 µg/mL (≈ 23.8 µM) in [4] and 15.4 µg/mL in experiment [3]. Take `C=C(COC(=O)Cc1cc(O)c(O)c(Cl)c1)[C@@]12O[C@@H]1[C@@]1(C)C(=CC2=O)CC[C@@H](O)[C@@H]1C`: the IC50 in [5] worked out at 5400 nM. `CCCCC[C@H]1CCC[C@@H](Cl)C[C@@H](OC)c2cc(O)c(c(O[C@@H]3OC[C@@H](O)[C@H](O)[C@H]3O)c2)[C@@H](CCCC)CCC[C@@H](Cl)C[C@@H](OC)c2cc(O)c1c(O)c2`: the GI50 in [6] was 720 nM. `CCCC[C@H]1CCCCC[C@@H](O)c2cc(O)c(c(O)c2)[C@@H](CCCC)CCC[C@@H](Cl)C[C@@H](OC)c2cc(O)c1c(O)c2` yielded a GI50 in experiment [6] of 720 nM. As for `C=C(C)[C@@H](O)CC/C(C)=C1\CC[C@](C)(Cl)[C@@H](Br)C1`, the MIC in experiment [4] was found to be 4 µg/mL (≈ 11.9 µM); in experiment [3] it was 26.8 µg/mL. For the molecule `COc1c(Br)cc(C/C(=N/O)C(=O)NC[C@@H](O)COc2c(Br)cc([C@H]3CNC(=O)O3)cc2Br)c(O)c1Br`, the MIC in [3] was determined as 5.2 µM.

For the molecule `C=C1C[C@H](O)[C@H](Br)C(C)(C)[C@]12CC=C(COC)CC2`, the IC50 in experiment [7] is 4080 nM. Regarding `CCCC[C@H]1CCC[C@@H](Cl)CCc2cc(O)c(c(O)c2)[C@@H](CCCC)CCC[C@@H](Cl)C[C@@H](OC)c2cc(O)c1c(O)c2`, in experiment [6], the GI50 is 720 nM. `CC[C@H](C)[C@H]1O[C@@H](CC(C)=O)O[C@@]1(C)/C=C/C1=CC2=C(Cl)C(=O)[C@](C)(O)[C@H](OC(C)=O)[C@H]2CO1`: the MIC in experiment [2] stood at 12.5 µg/mL. Regarding `CC(C)/C1=C/[C@H](O)[C@](C)(O)CC[C@H](Cl)[C@@]2(C)CC[C@H](O2)[C@](C)(O)CC1`, the IC50 in [8] was determined as 3670 nM. In the case of `C=C(COC(=O)Cc1ccc(O)c(Cl)c1)[C@@]12O[C@@H]1[C@@]1(C)C(=CC2=O)CC[C@@H](O)[C@@H]1C`, the IC50 in experiment [5] came to 7300 nM.

As to `O=C1NC(=O)c2c1c1c3cc(Cl)ccc3[nH]c1c1[nH]c3ccc(Cl)cc3c21`, in [9], the MIC came out at 1 µg/mL (≈ 2.54 µM). Consider `CCCC[C@H]1CCC[C@@H](Cl)C[C@@H](OC)c2cc(O)c(c(O)c2)[C@@H](CC)CCC[C@@H](Cl)C[C@@H](OC)c2cc(O)c1c(O)c2`, for which halving of growth in [6] (GI50) required 720 nM. In the case of `O=C1Oc2cc(Br)c(O)c(Br)c2/C1=C/c1cc(Br)c(O)c(Br)c1`, the MIC in experiment [3] was 5.2 µM. As for `CCCC[C@@H](Cl)CCC[C@@H](Cl)C[C@@H](OC)c1cc(O)c([C@@H](CCCC)CCC[C@@H](Cl)C[C@@H](OC)c2cc(O)cc(O)c2)c(O)c1`, the concentration for 50% growth inhibition (GI50) in [6] was 720 nM. As for `CC(C)c1cc(=O)c2c(cc(O)c3c(=O)c4c(O)c(Br)ccc4c(=O)c32)c1=O`, the IC50 in [2] was 0.098 µg/mL (≈ 0.222 µM); in experiment [7], 9300 nM. For `CC(C)[C@@]1(O)/C=C/[C@](C)(O)CC[C@H](Cl)[C@@]2(C)CC[C@H](O2)[C@](C)(O)CC1`, in experiment [8], the concentration for half-maximal inhibition (IC50) came to 3670 nM. As to `C[C@]12NC(=N)N[C@@]1(O)c1nc(-c3c[nH]c4ccccc34)cnc1-c1c2[nH]c2cc(Br)ccc12`, the MIC in [1] was found to be 37.5 µM (≈ 18.8 µg/mL); in [10] it was 18.5 µM (≈ 9.26 µg/mL). In the case of `CC[C@H](C)[C@H]1O[C@H](CC(C)=O)O[C@@]1(C)/C=C/C1=CC2=C(Cl)C(=O)[C@](C)(O)[C@H](OC(C)=O)[C@H]2CO1`, in experiment [2], the MIC came out at 25 µg/mL. `CCCC[C@H]1CCCCC[C@@H](OC)c2cc(O)c(c(O)c2)[C@@H](CCCC)CCC[C@@H](Cl)C[C@@H](OC)c2cc(O)c1c(O)c2` had a GI50 in experiment [6] of 720 nM.

As to `O=C(N[C@H](CO)[C@H](O)c1ccc([N+](=O)[O-])cc1)C(Cl)Cl` [CHLORAMPHENICOL], the MIC in [11] amounted to 2 µg/mL (≈ 6.19 µM).

Take `O=C(O)c1cn(C2CC2)c2cc(N3CCNCC3)c(F)cc2c1=O` [CIPROFLOXACIN]: in experiment [1], the MIC came to 0.025 µM (≈ 0.00828 µg/mL).
